The record followed here is PubChem BioAssay AID296 (DTP/NCI, 2004).

This assay has as its system MX-1 breast xenograft, nude mice, tumor weight T/C. In words: NCI In Vivo Anticancer Drug Screen. Data for tumor model Human Mammary Carcinoma MX-1 Xenograft (intrarenal inoculation) in NU/NU Swiss (nude) mice. As to conditions: endpoint: mean tumor weight change, higher = larger tumour. In a few lines: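 Activity is given as a ratio, with each measurement in the compound-treated arm divided by the matching measurement in vehicle-dosed controls. Tumour size or survival serves as the measured parameter.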
For orientation: A xenograft is tissue or cells of one species grown in another, often human tumour cells in immunodeficient mice.

Where [1] appears, read: dose: 100.0 mg/kg/injection, schedule: Q01DX010 (sc), vehicle: saline.
The mark [2] stands for this setting: dose: 200.0 mg/kg/injection, schedule: Q01DX010 (sc), vehicle: saline.
Setting [3] is: dose: 300.0 mg/kg/injection, schedule: Q04DX003 (sc), vehicle: saline with Tween-80.
[4] abbreviates: dose: 600.0 mg/kg/injection, schedule: Q04DX003 (sc), vehicle: saline with Tween-80.
[5] abbreviates: dose: 1200.0 mg/kg/injection, schedule: Q04DX003 (sc), vehicle: saline with Tween-80.
Setting [6] is: dose: 150.0 mg/kg/injection, schedule: Q04DX003 (sc), vehicle: saline with Tween-80.
The mark [7] stands for this setting: dose: 300.0 mg/kg/injection, schedule: Q04DX003 (sc), vehicle: saline.
Where [8] appears, read: dose: 300.0 mg/kg/injection, schedule: Q04DX003 (sc), vehicle: Klucel (hydroxypropylcellulose) (HPC).
The mark [9] stands for this setting: dose: 600.0 mg/kg/injection, schedule: Q04DX003 (sc), vehicle: Klucel (hydroxypropylcellulose) (HPC).
[10] abbreviates: dose: 1200.0 mg/kg/injection, schedule: Q04DX003 (sc), vehicle: Klucel (hydroxypropylcellulose) (HPC).
Setting [11] is: dose: 100.0 mg/kg/injection, schedule: Q04DX003 (sc), vehicle: Klucel (hydroxypropylcellulose) (HPC).
The mark [12] stands for this setting: dose: 200.0 mg/kg/injection, schedule: Q04DX003 (sc), vehicle: Klucel (hydroxypropylcellulose) (HPC).
Where [13] appears, read: dose: 400.0 mg/kg/injection, schedule: Q04DX003 (sc), vehicle: Klucel (hydroxypropylcellulose) (HPC).
Where [14] appears, read: dose: 6.25 mg/kg/injection, schedule: Q01DX010 (sc), vehicle: saline.
Setting [15] is: dose: 0.5 mg/kg/injection, schedule: Q04DX003 (sc), vehicle: saline + alcohol.

“And” between values parts separate entries of the source, which are not always exact repeats. Identical values can stand only once. Results filed as inconclusive are left out. *1 amine or outer side, *2 acyl side, *3 side chain or, on linkers, in order; H or OH if unused. Where a SMILES comes first, the peptide text is derived from it. Bridges are numbered along the chain shown (N, C = ends). Roman numbers before positions name the chains, in order. [ ]: non-standard residue; d: D form. Actinocin(1to9) = Cc1c2oc3c(C)ccc(C(=O)[*:2])c3nc-2c(C(=O)[*:1])c(N)c1=O; NMeV = CN[CH](C(=O)O)C(C)C; Aze = O=C(O)[CH]1CCN1; Sar = CNCC(=O)O

Turning to `O=C1c2ccccc2C(=O)c2c3c(cc(NCCNCCO)c21)N(CCO)CCN3`, the T/C was 95 % of control (dose: 12.5 mg/kg/injection, schedule: Q04DX003 (sc), vehicle: DMSO); 101 % of control (dose: 25.0 mg/kg/injection, schedule: Q04DX003 (sc), vehicle: DMSO); 77 % of control (dose: 50.0 mg/kg/injection, schedule: Q04DX003 (sc), vehicle: DMSO); 111 % of control (dose: 100.0 mg/kg/injection, schedule: Q04DX003 (sc), vehicle: DMSO); 151 % of control (dose: 200.0 mg/kg/injection, schedule: Q04DX003 (sc), vehicle: DMSO).

As for `NCCc1ccc(O)c(O)c1`, the T/C was 77 % of control under setting [1]; 62 % of control under setting [2]; 80 % of control (dose: 400.0 mg/kg/injection, schedule: Q01DX010 (sc), vehicle: saline); 61 % of control (dose: 800.0 mg/kg/injection, schedule: Q01DX010 (sc), vehicle: saline).

For the molecule `Nc1nc(F)nc2c1ncn2C1OC(COP(=O)(O)O)C(O)C1O` (centres undefined), the T/C (dose: 50.0 mg/kg/injection, schedule: Q01DX010 (sc), vehicle: saline) is 86 % of control; the T/C under setting [1] is 69 % of control; the T/C under setting [2] is 91 % of control.

Turning to `Nc1ccc2c(c1)CN1C(=O)c3ccccc3C1=N2`, the T/C reads like this: under setting [3], 203 % of control; under setting [4], 168 % of control; under setting [5], 76 % of control.

In the case of `O=C1NCC(Br)C(=O)N1` (centres undefined), the T/C under setting [6] is 100 % of control.

Turning to `S=P(N1CC1)(N1CC1)N1CC1`, for the setting “dose: 4.0 mg/kg/injection, schedule: Q01DX010 (sc), vehicle: saline”, the T/C is -94 % of control.

For `O=C1C(O)=C(c2ccccc2)C(=O)C(O)=C1c1ccccc1`, the T/C (dose: 75.0 mg/kg/injection, schedule: Q04DX003 (sc), vehicle: saline) was 118 % of control; the T/C (dose: 150.0 mg/kg/injection, schedule: Q04DX003 (sc), vehicle: saline) is 74 % of control; the T/C under setting [7] is 61 % of control.

Regarding `CC(=O)OCC1OC(n2ccc(N)nc2=O)C(OC(C)=O)C1OC(C)=O` (centres undefined), the T/C (dose: 150.0 mg/kg/injection, schedule: Q04DX003 (sc), vehicle: suspension in saline) is 89 % of control; the T/C under setting [7] is 107 % of control; the T/C (dose: 600.0 mg/kg/injection, schedule: Q04DX003 (sc), vehicle: saline) was 82 % of control; the T/C (dose: 1200.0 mg/kg/injection, schedule: Q04DX003 (sc), vehicle: saline) was 84 % of control; the T/C (dose: 2400.0 mg/kg/injection, schedule: Q04DX003 (sc), vehicle: suspension in saline) was 14 % of control.

For `FC(F)(F)c1nc2nc(Cl)c(Cl)nc2[nH]1`, the T/C is, setting by setting: (dose: 75.0 mg/kg/injection, schedule: Q04DX003 (sc), vehicle: saline with Tween-80) 92 % of control; under setting [6], 97 % of control; under setting [3], 90 % of control.

For the molecule `CCNC(C)(C)C(SSS)c1ccco1` (centres undefined), the T/C is, setting by setting: (dose: 150.0 mg/kg/injection, schedule: Q04DX003 (sc), vehicle: Klucel (hydroxypropylcellulose) (HPC)) 102 % of control; under setting [8], 97 % of control; under setting [9], 80 % of control; under setting [10], 86 % of control.

For the molecule `CCNC(=O)[B-][N+](C)(C)C`, the T/C under setting [11] was 115 % of control, the T/C under setting [12] is 92 % of control and the T/C under setting [13] is 74 % of control.

Turning to `CC(=O)OCC1OC(OC(C)=O)C(NC(=O)N(CCCl)N=O)C(OC(C)=O)C1OC(C)=O` (centres undefined), the T/C was 95 % of control (dose: 6.0 mg/kg/injection, schedule: Q04DX003 (sc), vehicle: Klucel (hydroxypropylcellulose) (HPC)) and 77 % of control (dose: 24.0 mg/kg/injection, schedule: Q04DX003 (sc), vehicle: Klucel (hydroxypropylcellulose) (HPC)).

In the case of `C[n+]1c2cc(N)ccc2cc2ccc(N)cc21`, the T/C reads like this: (dose: 1.56 mg/kg/injection, schedule: Q01DX010 (sc), vehicle: saline) 79 % of control; (dose: 3.13 mg/kg/injection, schedule: Q01DX010 (sc), vehicle: saline) 66 % of control; under setting [14], 100 % of control.

With `Cc1c2oc3c(C)ccc(C(=O)NC4C(=O)NC(C(C)C)C(=O)N5CCCC5C(=O)N(C)CC(=O)N(C)C(C(C)C)C(=O)OC4C)c3nc-2c(C(=O)NC2C(=O)NC(C(C)C)C(=O)N3CCC3C(=O)N(C)CC(=O)N(C)C(C(C)C)C(=O)OC2C)c(N)c1=O` (centres undefined) (I: TV[Aze][Sar][NMeV] / II: TVP[Sar][NMeV]; ester I:1-I:C, II:1-II:C; linker I:N-II:N via Actinocin(1to9); configuration not given here), the T/C by setting is: (dose: 0.25 mg/kg/injection, schedule: Q04DX003 (sc), vehicle: saline + alcohol) 53 % of control; under setting [15], 12 % of control; (dose: 0.5 mg/kg/injection, schedule: Q04DX003 (sc), vehicle: saline) 112 % of control; (dose: 1.0 mg/kg/injection, schedule: Q04DX003 (sc), vehicle: saline + alcohol) -80 % of control; (dose: 1.0 mg/kg/injection, schedule: Q04DX003 (sc), vehicle: saline) 47 % of control; (dose: 2.0 mg/kg/injection, schedule: Q04DX003 (sc), vehicle: saline) 40 % of control.

Take `C[C@]12C=CC(=O)C=C1CC[C@@H]1[C@@H]2C(=O)C[C@@]2(C)[C@H]1CC[C@]2(O)C(=O)CO`: the T/C reads like this: under setting [8], 40 % of control; under setting [9], 73 % of control; under setting [10], 44 % of control; (dose: 2400.0 mg/kg/injection, schedule: Q04DX003 (sc), vehicle: Klucel (hydroxypropylcellulose) (HPC)) 29 % of control.

`COc1cccc2c1C(=O)c1c(O)c3c(c(O)c1C2=O)C[C@H](O)C[C@@H]3OC1CC(N)C(O)C(C)O1` (some centres undefined): the T/C was 165 % of control (dose: 3.12 mg/kg/injection, schedule: Q01DX010 (sc), vehicle: saline); 83 % of control under setting [14]; 66 % of control (dose: 12.5 mg/kg/injection, schedule: Q01DX010 (sc), vehicle: saline); 81 % of control (dose: 25.0 mg/kg/injection, schedule: Q01DX010 (sc), vehicle: saline).

Turning to `O=C(C#Cc1ccccc1)c1ccccc1`, the T/C (dose: 50.0 mg/kg/injection, schedule: Q04DX003 (sc), vehicle: Klucel (hydroxypropylcellulose) (HPC)) is 76 % of control; the T/C under setting [11] was 113 % of control; the T/C under setting [12] is 87 % of control; the T/C under setting [8] was 87 % of control; the T/C under setting [13] is 42 % of control; the T/C under setting [9] was 110 % of control. Also, the T/C under setting [10] was 104 % of control.

Consider `CC1Oc2cc3c(-c4c(O)cc(O)c5c(O)c6c(cc45)OC(C)C(C)C6=O)c(O)cc(O)c3c(O)c2C(=O)C1C` (centres undefined), for which the T/C (dose: 9.38 mg/kg/injection, schedule: Q04DX003 (ip), vehicle: suspension in saline) is 16 % of control.

As for `CNC(=O)/C=C/C1=CN2C(=O)c3ccc(C)c(O)c3NC(OC)C2C1` (centres undefined), the T/C by setting is: (dose: 0.2 mg/kg/injection, schedule: Q04DX003 (sc), vehicle: saline) 82 % of control; (dose: 0.4 mg/kg/injection, schedule: Q04DX003 (ip), vehicle: saline) 18 % of control and 21 % of control; (dose: 1.6 mg/kg/injection, schedule: Q04DX003 (sc), vehicle: saline) 3 % of control.

As to `O=C(NC1CCCCC1)OCc1c(COC(=O)NC2CCCCC2)c(-c2ccc(Cl)c(Cl)c2)n2c1CCC2`, the T/C is, setting by setting: under setting [3], 114 % of control; under setting [4], 114 % of control; under setting [5], 107 % of control; (dose: 2400.0 mg/kg/injection, schedule: Q04DX003 (sc), vehicle: saline with Tween-80) 109 % of control.

As to `CO[C@H]1Nc2c(ccc(C)c2O)C(=O)N2C=C(/C=C/C(N)=O)C[C@@H]12`, the T/C was 18 % of control and 40 % of control under setting [15]; -100 % of control (dose: 2.0 mg/kg/injection, schedule: Q04DX003 (sc), vehicle: saline + alcohol).

For `O=c1n[n+]([O-])ccn1C1OC(CO)C(O)C1O` (centres undefined), the T/C (dose: 100.0 mg/kg/injection, schedule: Q01DX010 (sc), vehicle: suspension in saline) was 56 % of control; the T/C (dose: 200.0 mg/kg/injection, schedule: Q01DX010 (sc), vehicle: suspension in saline) is 91 % of control; the T/C (dose: 400.0 mg/kg/injection, schedule: Q01DX010 (sc), vehicle: suspension in saline) is 86 % of control.
